Source: publication PMC5222549 (Journal of immunology (Baltimore, Md. : 1950), 2016)

Columns and labels:
mCRT(1-351 ΔP) = target: T1, mCRT(1-351 ΔP) (Mus musculus, UniProt P14211, DEL204-300); assay: isothermal titration calorimetry, lipid vesicles titrated into […] protein; assay type: binding
T1 sequence (P14211 with tags, fused parts or gaps DEL204-300): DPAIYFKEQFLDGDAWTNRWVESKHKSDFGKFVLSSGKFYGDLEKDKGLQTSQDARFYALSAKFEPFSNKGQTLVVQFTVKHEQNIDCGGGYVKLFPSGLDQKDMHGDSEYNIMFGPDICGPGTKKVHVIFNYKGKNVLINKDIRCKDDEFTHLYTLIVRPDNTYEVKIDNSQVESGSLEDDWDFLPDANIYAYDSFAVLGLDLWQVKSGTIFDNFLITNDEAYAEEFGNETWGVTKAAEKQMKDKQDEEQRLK

mCRT(ΔP) = target: T2, mCRT(ΔP) (Mus musculus, UniProt P14211, DEL204-300); assay: as above; assay type: binding
T2 sequence (P14211 with tags, fused parts or gaps DEL204-300): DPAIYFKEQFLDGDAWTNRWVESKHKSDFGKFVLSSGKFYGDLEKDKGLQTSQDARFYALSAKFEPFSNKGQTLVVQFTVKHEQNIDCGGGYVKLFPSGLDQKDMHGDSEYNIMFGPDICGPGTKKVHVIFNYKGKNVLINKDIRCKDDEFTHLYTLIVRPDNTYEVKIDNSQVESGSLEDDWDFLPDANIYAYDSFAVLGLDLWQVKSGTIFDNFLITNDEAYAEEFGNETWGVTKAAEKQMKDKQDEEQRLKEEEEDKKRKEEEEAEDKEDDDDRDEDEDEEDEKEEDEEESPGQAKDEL

mCRT(WT) = target: T3, mCRT(WT) (Mus musculus, UniProt P14211); assay: as above; assay type: binding
T3 sequence (P14211 18-416): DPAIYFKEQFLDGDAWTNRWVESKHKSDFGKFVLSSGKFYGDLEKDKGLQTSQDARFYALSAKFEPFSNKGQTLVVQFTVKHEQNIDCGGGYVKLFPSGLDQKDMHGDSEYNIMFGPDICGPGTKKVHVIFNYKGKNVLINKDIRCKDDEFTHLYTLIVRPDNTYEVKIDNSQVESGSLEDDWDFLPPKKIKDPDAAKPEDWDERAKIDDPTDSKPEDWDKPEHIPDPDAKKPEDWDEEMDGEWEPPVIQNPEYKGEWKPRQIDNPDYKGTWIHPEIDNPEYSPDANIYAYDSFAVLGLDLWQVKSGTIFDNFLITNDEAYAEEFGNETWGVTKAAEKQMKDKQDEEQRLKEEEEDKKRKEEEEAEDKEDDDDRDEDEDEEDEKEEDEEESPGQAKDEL

mCRT(1-351) = target: T4, mCRT(1-351) (Mus musculus, UniProt P14211); assay: as above; assay type: binding
T4 sequence (P14211 18-368): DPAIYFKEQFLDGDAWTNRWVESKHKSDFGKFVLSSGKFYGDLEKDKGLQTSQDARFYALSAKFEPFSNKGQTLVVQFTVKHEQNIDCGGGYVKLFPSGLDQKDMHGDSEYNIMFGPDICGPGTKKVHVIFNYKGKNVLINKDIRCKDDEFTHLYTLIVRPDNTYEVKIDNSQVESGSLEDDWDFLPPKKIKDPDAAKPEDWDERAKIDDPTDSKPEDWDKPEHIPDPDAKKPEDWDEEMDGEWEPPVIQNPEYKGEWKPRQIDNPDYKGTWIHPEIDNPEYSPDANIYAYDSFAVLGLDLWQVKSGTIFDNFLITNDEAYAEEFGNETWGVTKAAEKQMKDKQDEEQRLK

GB1-mCRT(C) = target: T5, GB1-mCRT(C) (Mus musculus, UniProt P14211); assay: as above; assay type: binding
T5 sequence (P14211 357-416): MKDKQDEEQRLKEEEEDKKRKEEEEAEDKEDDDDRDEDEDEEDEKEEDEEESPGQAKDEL

[1] = target: GB1-mCRT(P), the P-domain of murine calreticulin (residues 187-283) fused with the B1 domain of protein G (mouse); assay: BLI
ERp57 = target: T6, ERp57 (UniProt P30101 25-505); assay: BLI
T6 sequence (looked up): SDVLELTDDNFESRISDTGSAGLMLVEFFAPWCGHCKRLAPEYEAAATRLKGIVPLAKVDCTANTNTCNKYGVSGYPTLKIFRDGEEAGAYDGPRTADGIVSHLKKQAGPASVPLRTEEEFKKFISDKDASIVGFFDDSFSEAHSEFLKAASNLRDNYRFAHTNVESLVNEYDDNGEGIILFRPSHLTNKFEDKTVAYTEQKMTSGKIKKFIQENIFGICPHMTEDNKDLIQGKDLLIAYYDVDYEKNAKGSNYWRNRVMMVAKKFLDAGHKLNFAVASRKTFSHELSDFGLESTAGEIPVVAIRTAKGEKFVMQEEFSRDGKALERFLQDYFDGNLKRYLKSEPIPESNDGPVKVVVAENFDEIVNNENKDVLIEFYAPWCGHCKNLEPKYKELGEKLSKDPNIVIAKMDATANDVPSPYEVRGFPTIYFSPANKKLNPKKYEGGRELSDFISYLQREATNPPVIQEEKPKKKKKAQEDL

Molecule: CCCCCCCC/C=C\CCCCCCCC(=O)O[C@H](COC(=O)CCCCCCCCCCCCCCC)COP(=O)([O-])OCC[N+](C)(C)C [POPC]
- Kd (mCRT(1-351 ΔP)): 42.6 ± 11.5 µM
- Kd (mCRT(ΔP)): 92.5 ± 11 µM
- Kd (mCRT(WT)): 158 ± 37.3 µM
- Kd (mCRT(1-351)): 53.4 ± 13.8 µM

Molecule: CCCCCCCC/C=C\CCCCCCCC(=O)O[C@H](COC(=O)CCCCCCCCCCCCCCC)COP(=O)(O)OC[C@H](N)C(=O)O [POPS]
- Kd (mCRT(1-351 ΔP)): 20.2 ± 4.08 µM
- Kd (mCRT(ΔP)): 7.5 ± 5.69 µM
- Kd (GB1-mCRT(C)): 28.2 ± 4.3 µM
- Kd (mCRT(WT)): 12.1 ± 4.49 µM
- Kd (mCRT(1-351)): 32 ± 5.54 µM

Molecule: ERp57 (from UniProt P30101 25-505) (natural protein)
- Kd [1]: 0.101 µM

B1: wild type murine calreticulin, mCRT(WT) (natural protein, mouse, UniProt P14211 18-416, looked up)
chain: DPAIYFKEQFLDGDAWTNRWVESKHKSDFGKFVLSSGKFYGDLEKDKGLQTSQDARFYALSAKFEPFSNKGQTLVVQFTVKHEQNIDCGGGYVKLFPSGLDQKDMHGDSEYNIMFGPDICGPGTKKVHVIFNYKGKNVLINKDIRCKDDEFTHLYTLIVRPDNTYEVKIDNSQVESGSLEDDWDFLPPKKIKDPDAAKPEDWDERAKIDDPTDSKPEDWDKPEHIPDPDAKKPEDWDEEMDGEWEPPVIQNPEYKGEWKPRQIDNPDYKGTWIHPEIDNPEYSPDANIYAYDSFAVLGLDLWQVKSGTIFDNFLITNDEAYAEEFGNETWGVTKAAEKQMKDKQDEEQRLKEEEEDKKRKEEEEAEDKEDDDDRDEDEDEEDEKEEDEEESPGQAKDEL
- Kd (ERp57): 0.282 ± 0.038 µM
